Source: paper PMC6770510, “In Vitro Production and Identification of Angiotensin Converting Enzyme (ACE) Inhibitory Peptides Derived from Distilled Spent Grain Prolamin Isolate” (Foods, 2019)
Residues, ends and D or L forms follow the SMILES beside them.

Biological target: T1, angiotensin converting enzyme (ACE) (Homo sapiens, UniProt P12821)
T1 construct: purchased Dojindo Inc., Kumamoto, Japan ACE kit-WST
Assay: ACE inhibitory activity, colorimetric detection system (ACE kit-WST)
Assay type: biochemical
Details: synthetic peptides; mean ± SD, n = 3; read-out: IC50 (μM) for ACE of corresponding synthetic peptides
Protocol: The ACE inhibitory activity was determined following the method as previously described, using the colorimetric detection system (ACE kit-WST, Dojindo Inc., Kumamoto, Japan). The assay procedure was consistent with the technical manual provided by the assay kit. Briefly, 20 µL of sample solution was added to a sample well, and 20 µL of deionized water was added to blank 1 and blank 2 wells. 20 µL of substrate buffer was added to each well. 20 µL of deionized water was added to blank 2 well, while 20 µL of enzyme working solution was added to each sample and blank 1 wells. All wells containing above solutions were incubated at 37 °C for 1 h. Afterwards, 200 µL of the indicator working solution was added to each well with further incubation for 10 min. Then, the absorbance was recorded at 450 nm using a microplate reader (Cytation 3, BioTek Instruments, Inc., Winooski, VT, USA). The ACE inhibitory activity was calculated using the equation (1) ACE inhibitory activity (inhibition rate %) = Ablank1− Asample/Ablank1− Ablank2 × 100% where Ablank1 represented positive control (without ACE inhibition); Ablank2 was the absorbance of the reagent blank, while Asample was the absorbance of the sample. The concentration inducing 50% inhibition (IC50) of peptides and some samples were also determined with non-linear regression.

T1 sequence (P12821 30-1306, species assumed): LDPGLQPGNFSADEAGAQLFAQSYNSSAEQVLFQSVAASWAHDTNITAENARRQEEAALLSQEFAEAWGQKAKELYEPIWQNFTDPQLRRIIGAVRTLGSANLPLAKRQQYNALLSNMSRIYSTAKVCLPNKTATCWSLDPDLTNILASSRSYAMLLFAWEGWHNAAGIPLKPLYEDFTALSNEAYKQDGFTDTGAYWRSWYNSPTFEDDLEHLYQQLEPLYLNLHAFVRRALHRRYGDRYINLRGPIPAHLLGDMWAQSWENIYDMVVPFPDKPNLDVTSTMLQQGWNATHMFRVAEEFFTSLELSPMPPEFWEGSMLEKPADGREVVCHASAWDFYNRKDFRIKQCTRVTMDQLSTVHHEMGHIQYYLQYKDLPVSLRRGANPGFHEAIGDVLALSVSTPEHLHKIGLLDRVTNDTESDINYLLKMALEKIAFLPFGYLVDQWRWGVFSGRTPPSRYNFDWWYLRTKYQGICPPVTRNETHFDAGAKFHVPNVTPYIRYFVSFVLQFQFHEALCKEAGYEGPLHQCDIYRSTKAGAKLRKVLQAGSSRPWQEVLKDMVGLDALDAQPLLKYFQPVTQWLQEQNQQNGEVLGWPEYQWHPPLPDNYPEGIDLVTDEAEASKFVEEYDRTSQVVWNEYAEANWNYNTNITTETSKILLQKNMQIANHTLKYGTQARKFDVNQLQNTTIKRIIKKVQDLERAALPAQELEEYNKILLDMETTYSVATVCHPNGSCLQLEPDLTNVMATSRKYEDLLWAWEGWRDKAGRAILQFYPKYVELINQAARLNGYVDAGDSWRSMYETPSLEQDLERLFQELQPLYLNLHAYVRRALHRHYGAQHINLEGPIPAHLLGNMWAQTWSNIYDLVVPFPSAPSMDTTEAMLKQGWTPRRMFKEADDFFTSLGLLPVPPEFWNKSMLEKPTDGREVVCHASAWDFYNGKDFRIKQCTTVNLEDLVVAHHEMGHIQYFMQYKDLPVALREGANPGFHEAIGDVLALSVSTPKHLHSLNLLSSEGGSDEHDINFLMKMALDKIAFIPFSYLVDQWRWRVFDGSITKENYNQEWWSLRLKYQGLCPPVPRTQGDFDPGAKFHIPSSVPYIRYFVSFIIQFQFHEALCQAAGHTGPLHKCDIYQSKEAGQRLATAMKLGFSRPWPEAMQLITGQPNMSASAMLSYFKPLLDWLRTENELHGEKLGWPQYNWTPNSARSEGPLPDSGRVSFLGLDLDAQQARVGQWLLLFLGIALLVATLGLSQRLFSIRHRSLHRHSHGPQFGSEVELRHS

SMILES	IC50 [µM]
CC(C)C[C@H](NC(=O)[C@H](Cc1ccc(O)cc1)NC(=O)[C@H](C)N)C(=O)N[C@@H](CCC(N)=O)C(=O)O [AYLQ] (H-AYLQ-OH)	229 ± 9.63
CC(C)[C@H](NC(=O)[C@H](C)N)C(=O)N[C@@H](CCC(N)=O)C(=O)O [AVQ] (H-Ala-Val-Gln-OH)	181 ± 6.17
NC(=O)CC[C@H](NC(=O)[C@@H]1CCCN1C(=O)[C@@H](N)Cc1ccc(O)cc1)C(=O)O [YPQ] (H-Tyr-Pro-Gln-OH)	220 ± 9.56

Results, then the compound that gave them:

IC50 [µM]	SMILES
248 ± 7.15	CC(C)C[C@H](NC(=O)[C@@H](NC(=O)[C@@H]1CCCN1C(=O)[C@H](CC(C)C)NC(=O)[C@@H](N)C(C)C)C(C)C)C(=O)N[C@@H](CO)C(=O)O [VLPVLS] (H-VLPVLS-OH)
1246 ± 9.92	CC(C)C[C@H](NC(=O)[C@H](CO)NC(=O)[C@@H]1CCCN1C(=O)[C@H](CC(C)C)NC(=O)[C@@H](N)C(C)C)C(=O)N[C@@H](CC(N)=O)C(=O)O [VLPSLN] (H-VLPSLN-OH)
705 ± 16.1	CC(C)C[C@H](NC(=O)[C@H](CCC(N)=O)NC(=O)[C@@H](N)CC(N)=O)C(=O)O [NQL] (H-Asn-Gln-Leu-OH)
